{
  "source": "ChEMBL document CHEMBL4354802",
  "about": "“Peptide derivatives as inhibitors of NS2B-NS3 protease from Dengue, West Nile, and Zika flaviviruses” (Bioorg Med Chem, 2019)",
  "key": {"thrombin (prothrombin)": {"target": "thrombin (prothrombin) (Homo sapiens, UniProt P00734)", "assay": "Inhibition of human thrombin at 25 uM preincubated for 15 mins followed by Boc-Val-Pro-Arg-AMC addition and measured for 10 mins by continuous fluorimetric assay relative to control", "details": "human thrombin enzyme, probe Boc-Val-Pro-Arg-AMC"}, "Genome polyprotein [1]": {"target": "T1, Genome polyprotein (West Nile virus, UniProt P06935)", "T1 sequence (P06935 1371-1501 limits assumed)": "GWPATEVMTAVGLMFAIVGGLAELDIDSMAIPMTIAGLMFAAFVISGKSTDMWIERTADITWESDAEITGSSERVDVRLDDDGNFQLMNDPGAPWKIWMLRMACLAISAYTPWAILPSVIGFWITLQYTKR", "T1 sequence (P06935 1502-2120 limits assumed)": "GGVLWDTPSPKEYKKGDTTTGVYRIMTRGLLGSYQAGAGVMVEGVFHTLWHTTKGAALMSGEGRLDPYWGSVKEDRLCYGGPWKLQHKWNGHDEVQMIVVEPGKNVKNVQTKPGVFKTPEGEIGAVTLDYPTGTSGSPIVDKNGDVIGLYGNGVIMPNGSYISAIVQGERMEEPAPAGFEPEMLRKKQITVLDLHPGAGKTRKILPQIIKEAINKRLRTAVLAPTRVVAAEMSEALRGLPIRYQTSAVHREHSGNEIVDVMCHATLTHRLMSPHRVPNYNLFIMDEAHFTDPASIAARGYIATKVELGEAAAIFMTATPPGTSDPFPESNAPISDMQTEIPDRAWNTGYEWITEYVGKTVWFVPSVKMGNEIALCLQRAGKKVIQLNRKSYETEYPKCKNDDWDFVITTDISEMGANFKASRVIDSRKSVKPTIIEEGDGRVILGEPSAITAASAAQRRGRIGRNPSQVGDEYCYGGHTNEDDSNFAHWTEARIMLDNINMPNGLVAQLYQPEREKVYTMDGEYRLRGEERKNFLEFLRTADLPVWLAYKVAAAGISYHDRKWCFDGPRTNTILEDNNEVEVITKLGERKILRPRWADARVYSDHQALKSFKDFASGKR", "assay": "Inhibition of West Nile virus NS2B-NS3 protease preincubated for 1 hr followed by Pyr-RTKR-AMC addition and measured after 30 mins by fluorescence method"}, "Nonstructural protein 3 [2]": {"target": "T2, Nonstructural protein 3 (Zika virus, UniProt A0A024AXB9)", "T2 sequence (A0A024AXB9 whole entry, the tested form may be a part)": "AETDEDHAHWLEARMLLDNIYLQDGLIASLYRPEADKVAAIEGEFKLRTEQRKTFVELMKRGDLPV", "assay": "Inhibition of Zika virus IbH_30656 NS2B (45 to 96 residues)-NS3 (1 to 177 residues) protease expressed in Escherichia coli BL21/Rosetta (DE3) cells preincubated for 60 mins followed by Bz-nKRR-AMC addition and measured at 60 secs intervals over 10 mins by fluorescence method"}, "Nonstructural protein 3 [3]": {"target": "T2, Nonstructural protein 3", "assay": "Inhibition of Zika virus unlinked NS2B-NS3 protease preincubated for 5 mins followed by benzoyl-nKRR-AMC addition and measured every 60 secs for 12 mins by fluorescence method"}, "Genome polyprotein [4]": {"target": "Genome polyprotein", "assay": "Inhibition of Dengue virus serotype 1 NS2B-NS3 protease preincubated for 20 mins followed by Abz-RRRRSAG-nY-NH2 addition and measured for 60 mins by fluorescence method", "design": "species or system dengue virus type 1"}, "Genome polyprotein [5]": {"target": "T3, Genome polyprotein (dengue virus type 2, UniProt P29990)", "T3 sequence (P29990 1346-1475 limits assumed)": "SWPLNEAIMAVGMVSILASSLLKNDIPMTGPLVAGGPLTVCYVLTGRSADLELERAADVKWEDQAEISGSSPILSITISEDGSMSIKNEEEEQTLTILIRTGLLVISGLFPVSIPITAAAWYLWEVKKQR", "T3 sequence (P29990 1476-2093 limits assumed)": "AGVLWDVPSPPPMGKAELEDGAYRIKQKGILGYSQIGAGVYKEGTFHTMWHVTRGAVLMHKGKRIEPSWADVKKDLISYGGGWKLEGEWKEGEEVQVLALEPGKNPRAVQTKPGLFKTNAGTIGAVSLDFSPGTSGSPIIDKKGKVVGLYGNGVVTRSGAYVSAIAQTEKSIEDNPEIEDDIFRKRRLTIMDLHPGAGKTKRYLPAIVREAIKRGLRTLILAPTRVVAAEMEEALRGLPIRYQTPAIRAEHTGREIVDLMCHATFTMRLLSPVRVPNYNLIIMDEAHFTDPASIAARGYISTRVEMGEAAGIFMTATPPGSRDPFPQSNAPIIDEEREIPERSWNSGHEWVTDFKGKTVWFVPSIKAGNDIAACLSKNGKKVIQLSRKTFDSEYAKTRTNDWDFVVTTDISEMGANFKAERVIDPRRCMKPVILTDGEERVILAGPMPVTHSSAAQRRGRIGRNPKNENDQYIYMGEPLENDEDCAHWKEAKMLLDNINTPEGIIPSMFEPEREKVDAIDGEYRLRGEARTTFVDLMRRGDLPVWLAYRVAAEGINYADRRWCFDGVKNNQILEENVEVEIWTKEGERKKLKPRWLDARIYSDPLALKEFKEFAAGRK", "assay": "Inhibition of Dengue virus serotype 2 NS2B-NS3 protease preincubated for 20 mins followed by Abz-RRRRSAG-nY-NH2 addition and measured for 60 mins by fluorescence method"}, "Genome polyprotein [6]": {"target": "T1, Genome polyprotein", "assay": "Inhibition of West Nile virus NS2B (47 residues)-NS3 (184 residues) protease expressed in Escherichia coli BL21 (DE3) preincubated for 15 mins followed by Benzoyl-Nle-KRR-AMC addition and measured after 30 mins by fluorescence method"}, "Genome polyprotein [7]": {"target": "T1, Genome polyprotein", "assay": "Inhibition of West Nile virus NS2B-NS3 protease preincubated for 10 mins followed by Np-KKR-pNA addition and measured every 5 secs for 2 mins by fluorescence method"}, "Genome polyprotein [8]": {"target": "T3, Genome polyprotein", "assay": "Inhibition of Dengue virus serotype 2 NS2B(40 residues)-NS3 (185 residues) protease preincubated for 30 mins followed by ABz-nKRR-AMC addition and measured after 30 mins by fluorescence method"}, "Genome polyprotein [9]": {"target": "T1, Genome polyprotein", "assay": "Inhibition of West Nile virus protease"}, "Nonstructural protein 3 [10]": {"target": "T2, Nonstructural protein 3", "assay": "Inhibition of N-terminal His6-SUMO tagged Zika virus Puerto Rico NS2B-NS3 unlinked protease expressed in Escherichia coli BL21 Codon Plus (DE3) cells preincubated for 10 mins followed by pyr-TGKR-AMC addition and measured every 5 secs for 2 mins by fluorometric enzyme assay"}, "Nonstructural protein 3 [11]": {"target": "T2, Nonstructural protein 3", "assay": "Inhibition of N-terminal His6-SUMO tagged Zika virus Puerto Rico NS2B-NS3 linked protease expressed in Escherichia coli BL21 Codon Plus (DE3) cells preincubated for 10 mins followed by pyr-TGKR-AMC addition and measured every 5 secs for 2 mins by fluorometric enzyme assay"}, "Nonstructural protein 3 [12]": {"target": "T2, Nonstructural protein 3", "assay": "Inhibition of N-terminal His6-SUMO tagged Zika virus Puerto Rico NS2B-NS3 unlinked protease expressed in Escherichia coli BL21 Codon Plus (DE3) cells preincubated for 90 mins followed by pyr-TGKR-AMC addition and measured every 5 secs for 2 mins by fluorometric enzyme assay"}},
  "note": "Non-standard residues stand in square brackets, D forms with d. Residues, ends and D or L forms follow the SMILES beside them. ξ: configuration not given here. *: point of attachment. Trp(5-NO2) = N[C@@H](Cc1c[nH]c2ccc([N+](=O)[O-])cc12)C(=O)O; Gly(2-naphthyl) = N[C@H](C(=O)O)c1ccc2ccccc2c1; ξR = N=C(N)NCCCC(N)C(=O)O; 2Abz = Nc1ccccc1C(=O)O; PhAc = O=C(Cc1ccccc1)*",
  "data": [
    {"smiles": "CCCC[C@H](NC(=O)[C@H](CCCCN)NC(=O)[C@H](CCCNC(=N)N)NC(=O)c1ccc(/C=C(\\C#N)C(=O)NC2CC2)cc1)C(N)=O", "values": [
      {"measurement": "inhibition at 10 min, 25 µM", "setting": "thrombin (prothrombin)", "value": 13.4, "unit": "%"}
    ]},
    {"smiles": "CC(=O)N[C@@H](CCCCN)C(=O)N[C@@H](CCCCN)C(=O)NCCCCNC(=N)N", "values": [
      {"measurement": "IC50", "setting": "Genome polyprotein [1]", "value": 18700, "unit": "nM"},
      {"measurement": "Ki", "setting": "Genome polyprotein [1]", "value": 4900, "unit": "nM"}
    ]},
    {"smiles": "[H]/N=C(\\N)NCCC[C@@H](C=O)NC(=O)[C@H](CCCCN)NC(C)=O", "values": [
      {"measurement": "IC50", "setting": "Nonstructural protein 3 [2]", "value": 280, "unit": "nM"}
    ]},
    {"smiles": "N=C(N)NCCC[C@H](NC(=O)[C@H](CCCCN)NC(=O)[C@H](CCCCN)NC(=O)Cc1ccccc1)C(=O)NCC(=O)NCC(N)=O", "note": "(PhAc-KKRGG-NH2)", "values": [
      {"measurement": "IC50", "setting": "Nonstructural protein 3 [3]", "value": 1200, "unit": "nM"},
      {"measurement": "Ki", "setting": "Nonstructural protein 3 [3]", "value": 470, "unit": "nM"}
    ]},
    {"smiles": "N=C(N)NCCC[C@H](NC(=O)[C@H](CCCNC(=N)N)NC(=O)[C@H](CCCNC(=N)N)NC(=O)[C@@H](N)CCCNC(=N)N)C(=O)N[C@@H](Cc1cnc[nH]1)C(=O)N[C@@H](Cc1c[nH]c2ccccc12)C(=O)N[C@@H](CS)C(=O)N[C@@H](Cc1c[nH]c2ccccc12)C(N)=O", "note": "(H-RRRRHWCW-NH2)", "values": [
      {"measurement": "Ki", "setting": "Genome polyprotein [4]", "value": 400, "unit": "nM"},
      {"measurement": "Ki", "setting": "Genome polyprotein [5]", "value": 300, "unit": "nM"}
    ]},
    {"smiles": "N=C(N)NCCCC(C=O)NC(=O)[C@H](CCCCN)NC(=O)c1ncc[nH]1", "note": "(stereo not given in full)", "values": [
      {"measurement": "Ki", "setting": "Genome polyprotein [6]", "value": 120, "unit": "nM"}
    ]},
    {"smiles": "N=C(N)NCCCC(NC(=O)[C@H](CCCCN)NC(=O)[C@H](CCCCN)NC(=O)[C@@H](NC(=O)[C@H](Cc1c[nH]cn1)NC(=O)CNC(=O)CN)c1ccc2ccccc2c1)C(N)=O", "note": "(stereo not given in full) (H-GGH[Gly(2-naphthyl)]KK[ξR]-NH2)", "values": [
      {"measurement": "Ki", "setting": "Genome polyprotein [7]", "value": 8000, "unit": "nM"}
    ]},
    {"smiles": "CC(=O)N[C@@H](CCCNC(=N)N)C(=O)N[C@@H](CCCNC(=N)N)C(=O)N[C@@H](CCCNC(=N)N)C(=O)N[C@@H](CCCNC(=N)N)C(=O)N[C@@H](Cc1cnc[nH]1)C(=O)N[C@@H](Cc1c[nH]c2ccccc12)C(=O)N[C@@H](CS)C(=O)N[C@@H](Cc1c[nH]c2ccccc12)C(N)=O", "note": "(Ac-RRRRHWCW-NH2)", "values": [
      {"measurement": "Ki", "setting": "Genome polyprotein [4]", "value": 400, "unit": "nM"},
      {"measurement": "Ki", "setting": "Genome polyprotein [5]", "value": 300, "unit": "nM"}
    ]},
    {"smiles": "N=C(N)NCCC[C@@H](C=O)NC(=O)[C@H](CCCCN)NC(=O)[C@H](CCCCN)NC(=O)Cc1ccc(-c2ccccc2)cc1", "values": [
      {"measurement": "IC50", "setting": "Genome polyprotein [8]", "value": 12200, "unit": "nM"},
      {"measurement": "IC50", "setting": "Genome polyprotein [9]", "value": 56, "unit": "nM"}
    ]},
    {"smiles": "N=C(N)NCCC[C@H](NC(=O)Cc1ccc(CNC(=N)N)cc1)C(=O)N[C@@H](CCCNC(=N)N)C(=O)N[C@@H](CCCNC(=N)N)C(=O)NCc1ccc(C(=N)N)cc1", "values": [
      {"measurement": "IC50", "setting": "Nonstructural protein 3 [3]", "value": 1100, "unit": "nM"},
      {"measurement": "Ki", "setting": "Nonstructural protein 3 [3]", "value": 430, "unit": "nM"}
    ]},
    {"smiles": "CC(C)C[C@H](NC(=O)[C@H](Cc1cnc[nH]1)NC(=O)[C@H](CCCNC(=N)N)NC(=O)[C@H](CCCNC(=N)N)NC(=O)[C@H](CCCNC(=N)N)NC(=O)[C@@H](N)CCCNC(=N)N)C(=O)N[C@@H](CS)C(=O)N[C@@H](Cc1c[nH]c2ccccc12)C(N)=O", "note": "(H-RRRRHLCW-NH2)", "values": [
      {"measurement": "Ki", "setting": "Genome polyprotein [4]", "value": 300, "unit": "nM"},
      {"measurement": "Ki", "setting": "Genome polyprotein [5]", "value": 400, "unit": "nM"}
    ]},
    {"smiles": "CC(C)C[C@H](NC(=O)[C@H](Cc1cnc[nH]1)NC(=O)[C@H](CCCNC(=N)N)NC(=O)[C@H](CCCNC(=N)N)NC(=O)[C@H](CCCNC(=N)N)NC(=O)[C@H](CCCNC(=N)N)NC(=O)c1ccccc1N)C(=O)N[C@@H](CS)C(=O)N[C@@H](Cc1c[nH]c2ccc([N+](=O)[O-])cc12)C(N)=O", "note": "(H-[2Abz]RRRRHLC[Trp(5-NO2)]-NH2)", "values": [
      {"measurement": "Ki", "setting": "Genome polyprotein [4]", "value": 300, "unit": "nM"},
      {"measurement": "Ki", "setting": "Genome polyprotein [5]", "value": 1100, "unit": "nM"}
    ]},
    {"smiles": "N=C(N)NCCC[C@H](NC(=O)c1nccs1)C(=O)N[C@@H](CCCCN)C(=O)N[C@H](C(N)=O)c1ccc(OCc2ccc(C(F)(F)F)cc2)cc1", "values": [
      {"measurement": "IC50", "setting": "Nonstructural protein 3 [10]", "value": 1060, "unit": "nM"},
      {"measurement": "IC50", "setting": "Nonstructural protein 3 [11]", "value": 1040, "unit": "nM"},
      {"measurement": "IC50", "setting": "Nonstructural protein 3 [12]", "value": 1350, "unit": "nM"}
    ]},
    {"smiles": "N=C(N)NCCC[C@H](NC(=O)[C@H](CCCCN)NC(=O)[C@H](CCCCN)NC(=O)Cc1ccc(CNC(=N)N)cc1)C(N)=O", "values": [
      {"measurement": "IC50", "setting": "Nonstructural protein 3 [3]", "value": 1600, "unit": "nM"},
      {"measurement": "Ki", "setting": "Nonstructural protein 3 [3]", "value": 600, "unit": "nM"}
    ]}
  ]
}
